According to US7368576B2, “Dipeptidyl peptidase IV inhibitors and their uses as anti-cancer agents” (Probiodrug AG, priority 2001, dated 2008):

Experiments:
Type in all cases: biochemical
[1] = target: T1, Dipeptidyl Peptidase I (DP I, Cathepsin C) (Rattus norvegicus, UniProt P80067); assay: Cross reacting enzymes: dipeptidyl peptidase I; conditions: concentration range 1*10^−5 M-1*10^−7 M
T1 construct: purchased Qiagen GmbH, Hilden, Germany
T1 sequence (P80067 25-462): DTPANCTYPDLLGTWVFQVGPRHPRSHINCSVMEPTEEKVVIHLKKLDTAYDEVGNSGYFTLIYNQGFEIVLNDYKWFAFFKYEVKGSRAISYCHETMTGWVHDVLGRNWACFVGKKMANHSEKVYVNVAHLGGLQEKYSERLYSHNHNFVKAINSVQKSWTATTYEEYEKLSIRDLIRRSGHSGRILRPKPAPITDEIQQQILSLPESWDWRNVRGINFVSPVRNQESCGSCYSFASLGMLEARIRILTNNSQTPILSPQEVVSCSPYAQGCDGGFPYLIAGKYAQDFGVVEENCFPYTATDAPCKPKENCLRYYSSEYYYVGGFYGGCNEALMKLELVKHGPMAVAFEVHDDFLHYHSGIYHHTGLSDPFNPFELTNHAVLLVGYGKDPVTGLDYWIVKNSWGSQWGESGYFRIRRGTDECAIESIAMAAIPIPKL
Procedure: DP I or cathepsin C is a lysosomal cysteine protease which cleaves off dipeptides from the N-terminus of their substrates (Gutman, H. R. & Fruton, J. S., 1948, J. Biol: Chem., 174, 851-858). It is classified as a cysteine protease. The enzyme used was purchased from Qiagen (Qiagen GmbH, Hilden, Germany). In order to get a fully active enzyme, the enzyme was diluted 1000fold in MES buffer pH5.6 (40 mM MES, 4 mM DTT, 4 mM KCl, 2 mM EDTA, 0.015% Brij) and pre-incubated for 30 min at 30° C.
50 μl glutaminyl pyrrolidine or glutaminyl thiazolidine in a concentration range of 1*10^−5 M-1*10^−7 M were admixed with 110 μl buffer-enzyme-mixture. The assay mixture was pre-incubated at 30° C. for 15 min. After pre-incubation, 100 μl histidylseryl-β-nitroaniline (2*10^-5M) was added and measurement of yellow color development due to β-nitroaniline release was performed at 30° C. and […] for 10 min., using a plate reader (HTS7000 plus, Applied Biosystems, Weiterstadt, Germany).
The IC50-values were calculated using Graphit 4.0.15 (Erithacus Software, Ltd., UK).

[2] = target: T2, porcine dipeptidyl peptidase II (DP II) (Sus scrofa, UniProt A0A5G2QK18); assay: Inhibition of DPIV-like enzymes, dipeptidyl peptidase II; conditions: lysylalanylaminomethylcoumarine, 30° C.; read-out: Ki against porcine dipeptidyl peptidase II
T2 construct: The enzyme used was purified from porcine kidney; from tissue; host or cells: porcine kidney
Procedure: DP II (3.4.14.2) releases N-terminal dipeptides from oligopeptides if the N-terminus is not protonated (McDonald, J. K., Ellis, S. & Reilly, T. J., 1966, J. Biol. Chem., 241, 1494-1501). Pro and Ala in Pi-position are preferred residues. The enzyme activity is described as DPIV-like activity, but DP II has an acidic pH-optimum. The enzyme used was purified from porcine kidney.
100 μl glutaminyl pyrrolidine or glutaminyl thiazolidine in an concentration range of 1*10^−4 M-5*10^−8 M were admixed with 100 μl μl buffer solution (40 mM HEPES, pH7.6, 0.015% Brij, 1 mM DTT), 50 μl lysylalanylaminomethylcoumarine solution (5 mM) and 20 μl porcine DP II (250fold diluted in buffer solution). Fluorescence measurement was performed at 30° C. and λexiatation=380 nm, λemission=465 nm for 25 min using a plate reader (HTS7000plus, Applied Biosystems, Weiterstadt, Germany).

[3] = target: T3, recombinant human prolyl oligopeptidase (POP) (Homo sapiens, UniProt P48147); assay: Cross reacting enzymes: prolyl oligopeptidase; conditions: concentration range 1*10^−4 M-5*10^−8 M
T3 construct: made in house; host or cells: E. coli
T3 sequence (P48147 1-710): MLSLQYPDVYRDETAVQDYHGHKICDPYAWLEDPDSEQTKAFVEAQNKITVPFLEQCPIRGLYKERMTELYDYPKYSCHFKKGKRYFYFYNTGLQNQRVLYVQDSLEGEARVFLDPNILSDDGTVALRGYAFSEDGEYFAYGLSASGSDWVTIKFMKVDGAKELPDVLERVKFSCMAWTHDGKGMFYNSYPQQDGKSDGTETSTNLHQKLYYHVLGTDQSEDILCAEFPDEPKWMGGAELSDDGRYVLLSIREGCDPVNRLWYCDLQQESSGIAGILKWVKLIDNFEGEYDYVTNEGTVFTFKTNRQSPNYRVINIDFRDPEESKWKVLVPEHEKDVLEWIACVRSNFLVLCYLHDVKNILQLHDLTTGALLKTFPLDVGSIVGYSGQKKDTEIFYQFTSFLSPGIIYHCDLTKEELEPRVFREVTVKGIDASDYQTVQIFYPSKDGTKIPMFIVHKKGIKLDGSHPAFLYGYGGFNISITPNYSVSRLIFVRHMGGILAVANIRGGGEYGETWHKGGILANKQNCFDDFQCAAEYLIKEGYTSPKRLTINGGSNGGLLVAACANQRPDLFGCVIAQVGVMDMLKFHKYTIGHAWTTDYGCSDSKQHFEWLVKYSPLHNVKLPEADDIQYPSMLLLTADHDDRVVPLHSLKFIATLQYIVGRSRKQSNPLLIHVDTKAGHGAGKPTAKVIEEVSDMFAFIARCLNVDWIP
Procedure: Substrates are peptides with a molecular weight up to 3000 Da. The enzyme used was a recombinant human prolyl oligopeptidase. Recombinant expression was performed in E. coli under standard conditions as described elsewhere in the state of the art.
100 μl glutaminyl pyrrolidine or glutaminyl thiazolidine in an concentration range of 1*10^−4 M-5*10^−8 M were admixed with 100 μl μl buffer solution (40 mM HEPES, pH7.6, 0.015% Brij, 1 mM DTT) and 20 μl POP solution. The assay mixture was pre-incubated at 30° C. for 15 min. After pre-incubation, 50 μl glycylprolylprolyl-4-nitroaniline solution (0.29 mM) was added and measurement of yellow color development due to 4-nitroaniline release was performed at 30° C. and λ=405 nm for 10 min using a plate reader (sunrise, Tecan, Crailsheim, Germany). The IC50-values were calculated using Graphit 4.0.15 (Erithacus Software, Ltd., UK).

purified porcine DPIV = purified porcine DPIV (Sus scrofa, UniProt P22411); assay: Determination of IC50 values, DPIV (Gly-Pro-pNA); conditions: Gly-Pro-pNA 0.4 mM, HEPES pH7.6, 30° C.
Procedure: 100 μl inhibitor stock solution were mixed with 100 μl buffer (HEPES pH7.6) and 50 μl substrate (Gly-Pro-pNA, final concentration 0.4 mM) and preincubated at 30° C. Reaction was started by addition of 20 μl purified porcine DPIV. Formation of the product pNA was measured at 405 nm over 10 min using the HTS 7000Plus plate reader (Perkin Elmer) and slopes were calculated. The final inhibitor concentrations ranged between 1 mM and 30 nM. For calculation of IC50 GraFit 4.0.13 (Erithacus Software) was used.

T2 sequence (A0A5G2QK18 28-502): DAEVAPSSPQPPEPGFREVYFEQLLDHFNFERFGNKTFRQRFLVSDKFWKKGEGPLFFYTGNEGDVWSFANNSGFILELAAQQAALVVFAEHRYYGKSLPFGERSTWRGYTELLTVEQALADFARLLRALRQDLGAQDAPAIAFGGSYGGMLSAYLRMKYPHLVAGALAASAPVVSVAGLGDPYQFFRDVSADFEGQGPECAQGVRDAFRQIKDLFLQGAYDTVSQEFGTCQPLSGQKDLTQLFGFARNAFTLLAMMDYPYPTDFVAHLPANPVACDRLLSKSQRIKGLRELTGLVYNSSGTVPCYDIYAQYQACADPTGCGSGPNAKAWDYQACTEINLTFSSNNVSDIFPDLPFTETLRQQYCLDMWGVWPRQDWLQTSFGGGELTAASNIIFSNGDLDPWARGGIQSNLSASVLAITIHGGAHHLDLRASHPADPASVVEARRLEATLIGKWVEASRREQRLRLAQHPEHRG
Chain of purified porcine DPIV (P22411 whole entry): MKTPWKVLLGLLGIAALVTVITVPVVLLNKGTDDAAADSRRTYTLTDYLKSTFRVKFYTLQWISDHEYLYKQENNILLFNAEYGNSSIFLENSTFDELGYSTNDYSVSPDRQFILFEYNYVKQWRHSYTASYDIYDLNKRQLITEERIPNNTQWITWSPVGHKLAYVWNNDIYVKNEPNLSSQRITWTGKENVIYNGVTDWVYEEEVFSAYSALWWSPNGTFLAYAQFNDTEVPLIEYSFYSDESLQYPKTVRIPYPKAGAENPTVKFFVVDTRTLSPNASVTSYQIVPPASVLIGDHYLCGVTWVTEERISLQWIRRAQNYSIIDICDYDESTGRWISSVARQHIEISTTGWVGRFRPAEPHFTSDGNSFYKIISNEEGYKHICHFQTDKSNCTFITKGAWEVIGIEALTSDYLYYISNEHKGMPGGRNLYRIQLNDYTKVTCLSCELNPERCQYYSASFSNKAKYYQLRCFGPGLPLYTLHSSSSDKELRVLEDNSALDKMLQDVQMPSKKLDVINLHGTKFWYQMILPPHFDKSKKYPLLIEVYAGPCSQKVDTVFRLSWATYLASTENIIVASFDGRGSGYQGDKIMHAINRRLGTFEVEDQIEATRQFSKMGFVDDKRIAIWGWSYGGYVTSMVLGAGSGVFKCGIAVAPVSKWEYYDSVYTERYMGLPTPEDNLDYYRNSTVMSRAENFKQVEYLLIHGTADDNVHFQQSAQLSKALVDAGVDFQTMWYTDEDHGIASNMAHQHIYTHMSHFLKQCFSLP

**Q.** How did the “inhibition of the DP I enzyme activity” value [1] turn out when `NC(=O)CCC(N)C(=O)N1CCCC1` (stereo not shown) [Gln-Pyrr, glutaminyl pyrrolidine] was run?
**A.** No inhibition

**Q.** And the Ki [2]?
**A.** 85.2 µM

**Q.** What about the “inhibition of POP activity” value [3] of the same compound?
**A.** No inhibition

**Q.** What about the IC50 (purified porcine DPIV) of the same compound?
**A.** 15 µM
